From patent publication US20250032425A1, “FIRST IN CLASS USE OF ESTROGEN RECEPTOR BETA AGONISTS IN TREATING ANGELMAN SYNDROME AND RELEVANT AUTISM SPECTRUM DISORDERS” (BROWN UNIVERSITY, priority 2023, published 2025) come the findings set out here.

The structures appear in SMILES notation. “Also recorded” adds a separate entry of the source.

Test [1] relates to rat primary OPCs deficient in UBE3A. The experiment in a line: Ki67 immunoblotting in primary rat OPCs with Ube3A siRNA knockdown. Format: cell-based. The note with it: siUBE3A; 10 μM over 24 hours; vs siUBE3A alone. As for the experimental part:
OPC purification followed our protocol previously described in Mei et al., 2016 (Identification of the Kappa-Opioid Receptor as a Therapeutic Target for Oligodendrocyte Remyelination. J Neurosci 36, 7925-7935), isolating cells from day 7 postnatal rat cortical hemispheres. The process began with mechanical dissection and papain digestion at 37° C. for 75 minutes, with occasional shaking. After trituration, cells were processed through immunopanning with 0.2% BSA, involving 30 minutes of negative and 45 minutes of positive selection. Selection plates were pre-treated with secondary antibodies and incubated with primary antibodies Ran-2, Gal-C (for negative) and O4 (for positive selection). Trypsin dissociated OPCs from the selection dish, and the reaction was stopped with 30% FBS, achieving >95% purity. OPCs were then plated on poly-1-lysine-coated coverslips in a nutrient-rich medium and incubated at 37° C. and 5% CO2 overnight. Post PDGF-AA removal, OPCs received either compound or control treatments for 2 days, with vehicle controls adjusted to match treatment concentrations.
The siRNAs targeting UBE3A (Thermo Fisher, #4390815 and #4390816), estrogen receptors (Thermo Scientific #145909 for ESRβ, #145539 for ESRα, and #4390824 for GPER), and negative control (Thermo Scientific, #AM4615) were obtained commercially. […]
(In general: A western blot detects proteins with antibodies after separation by electrophoresis.)

For test [2], the system named is UBE3A-deficient iOPCs and iOLs. Description: Oligodendrocyte differentiation of UBE3A-deficient iOPCs into iOLs (immunoblotting of Ki67, MAG, CNPase). Format: cell-based, human. The note with it: AC-186 (10 µM).
Description: FIG. 25C: Immunoblotting was conducted to assess the impact of UBE3A depletion on ESR-β expression during oligodendrocyte differentiation. Protein levels of ESR-β in UBE3A-deficient iOPCs and subsequently differentiated iOLs were quantified, normalized against the loading control GAPDH, and expressed relative to the iOPC+siNC control condition (set at 1.0). […] Levels of Ki67 and Myelin Associated Glycoprotein (MAG) were measured in UBE3A-deficient iOPCs and iOLs differentiated from them, normalized against GAPDH, and compared to the iOPC+siNC condition. n=4 experiments. FIG. 25E: Immunoblotting to examine the role of UBE3A for OPC self-renewal and oligodendrocyte differentiation across different developmental stages. Expression of maturation and myelination markers (MBP, MAG, PLP1, CNPase) was quantified following UBE3A depletion timed from iOPCs to pre-iOLs, normalized against TUBB1. and compared to the iOPC+siNC control condition (set at 1.0). n=4 experiments.
Test [3] relates to AS iOPCs (UBE3A truncation mutation). Description: Proliferation of AS patient-derived iOPCs (EdU, Ki67). Type of test: cell-based, human. The note with it: 10 μM, 24 hours, vs vehicle. An excerpt: FIGS. 25A-25I depict the role of UBE3A via ESR-β signaling on OPC proliferation and oligodendrocyte differentiation. FIG. 25A: qPCR to evaluate the differentiation and maturation for myelination of iOPCs after persistent UBE3A knockdown, by measuring mRNA transcripts of UBE3A and myelination markers MBP and PLP1 in iOPCs treated with siNC or siUBE3A and differentiated in vitro. MBP and PLP1 mRNA expression decreased in iOLs treated with siUBE3A. n=3 independent experiments. FIG. 25B: In vitro myelination assays analyzed the effect of persistent UBE3A knockdown on iOPCs differentiation and maturation in nano-fiber-based cultures, with immunofluorescent staining of MBP (magenta) and DAPI (blue) and imaging of nano-fibers (grey). Quantification by the area (left graph) and density (right graph) of MBP fluorescent signals (normalized to siNC=1.0). MBP area and intensity decreased in cells treated with siUBE3A. n=3 experiments. Scale bar: 25 μm. […] Protein levels of ESR-β in UBE3A-deficient iOPCs and subsequently differentiated iOLs were quantified, normalized against the loading control GAPDH, and expressed relative to the iOPC+siNC control condition (set at 1.0). […] Levels of Ki67 and Myelin Associated Glycoprotein (MAG) were measured in UBE3A-deficient iOPCs and iOLs differentiated from them, normalized against GAPDH, and compared to the iOPC+siNC condition. n=4 experiments. […]

Turning to `Oc1ccc(C2(c3ccccc3F)CCC(F)(F)CC2)cc1` [AC-186], in test [1], the “OPC proliferation (Ki67 expression)” value is recorded as “rescues impaired proliferation; also recorded: rescued; also recorded: reversed; also recorded: rescue of OPC proliferation; also recorded: increased Ki67 expression”. The “oligodendrocyte differentiation (MAG, CNPase) with treatment at various stages, FIG. 26C” value in test [2] (iOPC to pre-iOL to iOL stages) is on record as “beneficial effects on differentiation were observed when administered during the iOPC stage”. Also, the “oligodendrocyte differentiation (MAG), FIG. 25D” value in test [2] (UBE3A-deficient iOLs, clemastine (2.5 μM), 3 days) was “no impact on differentiation”. Besides, the “ratio of EdU positive iOPCs (proliferation)” value in test [3] (AS iOPCs) is reported as “significantly enhanced the proliferation; also recorded: increased”. For the same compound, the Ki67 expression entry in test [3] (AS-derived OPCs) was “increased Ki67 expression”.
